Results reported in patent publication US9980928B2, “Hydroxy aliphatic substituted phenyl aminoalkyl ether derivatives” (PROUS INSTITUTE FOR BIOMEDICAL RESEARCH, S.A., priority 2012, dated 2018).

What was measured:
serotonin transporter = target: T1, serotonin transporter (Homo sapiens, UniProt P31645); assay: Serotonin transporter binding radioligand inhibition ([3H]-imipramine); details: concentration 10 μM; read-out: serotonin binding inhibition
T1 construct: expressed in transfected cells; host or cells: CHO cells
From the text: The serotonin transporter removes serotonin from the synaptic deft. The serotonin transporter terminates the effects of […], enabling its reuse by the presynaptic neuron.

[1] = target: T2, norepinephrine (NE) transporter (Homo sapiens, UniProt P23975); assay: Norepinephrine transporter binding radioligand inhibition ([3H]-nisoxetine); details: concentration 10 μM
T2 construct: expressed in transfected cells; host or cells: CHO cells
Experimental: The norepinephrine (NE) transporter removes NE from the synaptic cleft. The NE transporter terminates the effects of […], enabling its reuse by the presynaptic neuron. The in vitro binding of the compounds of the invention to the NE transporter and the percent inhibition of control-specific binding ([^3H]-nisoxetine in human recombinant CHO cells) is determined following the method described in Pacholczyk et al., (Nature 1991, 350(6316): 350-4.

uptake of serotonin = uptake of serotonin (Homo sapiens, UniProt P31645); assay: Uptake inhibition of serotonin, cellular assay; type: cell-based; details: read-out: Serotonin reuptake inhibition (IC50 μM)
Experimental: (§1) The effect of the compounds of the present invention as inhibitors of the uptake of norepinephrine and serotonin in cellular assays at concentrations that range from […] to 1 nM is determined following the methods described in Galli, A. et al. J Exp Biol 1995, 198(Pt. 10): 2197-212 and Gu, H. et al. J Biol Chem. 1994, 269(10):7124-30.

uptake of norepinephrine = uptake of norepinephrine (Homo sapiens, UniProt P23975); assay: Uptake inhibition of norepinephrine, cellular assay; type: cell-based; details: read-out: Norepinephrine reuptake inhibition (IC50 μM)
Experimental: as §1

mice = assay: Novel object recognition test (acute); type: in vivo; details: 30 mg/kg i.p., same experimental conditions
From the text: The novel object recognition task is used to evaluate cognition, particularly memory recognition, in rodent models of CNS disorders. This test is based on the spontaneous tendency of rodents to spend more time exploring a novel object than a familiar one. The choice to explore the novel object reflects the use of learning and memory recognition. The novel object recognition test provides a measure of activity in a novel environment allowing tests for emotional reactivity and also for novel object recognition, a cognitive domain that depends on hippocampal functional integrity. Animals were habituated to the presence of two identical objects (LEGO® pieces) during a single session of 5 minutes (training) and sniffing (exploration of an object was defined as pointing the nose to the object at a distance of <1 cm and/or touching it with the nose). Mice were injected with saline or with the compound to be tested and returned to their home cages. At 24 hours the animals were introduced in the same open field again with the same two items (familiarization), and again exploration in each of them for 5 minutes was registered. One hour later, the mice were retested in the open field for 3 minutes, but this time with one of the “familiar” objects replaced by a new one (test). To analyze cognitive performance, a discrimination index was calculated as the difference in time exploring the novel and familiar object, expressed as the ratio of the total time spent exploring both objects, which made it possible to adjust for any differences in total exploration time. This test is useful for assessing impaired cognitive ability in transgenic strains of mice and evaluating novel chemical entities for their effect on cognition (Zhang, R. J Alzheimers Dis 2012, 31(4): 801-12). […] Neuroplasticity 2007, 26496).

T1 sequence (P31645 whole entry): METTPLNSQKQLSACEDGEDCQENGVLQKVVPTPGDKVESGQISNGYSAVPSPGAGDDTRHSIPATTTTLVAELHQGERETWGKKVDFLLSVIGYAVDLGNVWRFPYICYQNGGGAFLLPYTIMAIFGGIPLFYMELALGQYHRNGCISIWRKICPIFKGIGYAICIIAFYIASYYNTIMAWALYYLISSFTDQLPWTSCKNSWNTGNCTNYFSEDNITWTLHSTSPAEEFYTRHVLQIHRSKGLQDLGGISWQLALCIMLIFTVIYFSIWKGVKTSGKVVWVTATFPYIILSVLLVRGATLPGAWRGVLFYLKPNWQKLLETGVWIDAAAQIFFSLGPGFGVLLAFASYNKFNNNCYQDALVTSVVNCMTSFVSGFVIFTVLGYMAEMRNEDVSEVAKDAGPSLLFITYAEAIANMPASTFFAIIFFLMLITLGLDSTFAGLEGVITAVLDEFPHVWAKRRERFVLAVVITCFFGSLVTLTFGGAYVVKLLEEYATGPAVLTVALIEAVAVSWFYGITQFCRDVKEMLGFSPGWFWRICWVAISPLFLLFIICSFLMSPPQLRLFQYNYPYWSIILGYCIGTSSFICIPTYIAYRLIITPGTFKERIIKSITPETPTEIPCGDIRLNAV
uptake of serotonin, sequence (P31645 whole entry): as above
T2 sequence (P23975 whole entry): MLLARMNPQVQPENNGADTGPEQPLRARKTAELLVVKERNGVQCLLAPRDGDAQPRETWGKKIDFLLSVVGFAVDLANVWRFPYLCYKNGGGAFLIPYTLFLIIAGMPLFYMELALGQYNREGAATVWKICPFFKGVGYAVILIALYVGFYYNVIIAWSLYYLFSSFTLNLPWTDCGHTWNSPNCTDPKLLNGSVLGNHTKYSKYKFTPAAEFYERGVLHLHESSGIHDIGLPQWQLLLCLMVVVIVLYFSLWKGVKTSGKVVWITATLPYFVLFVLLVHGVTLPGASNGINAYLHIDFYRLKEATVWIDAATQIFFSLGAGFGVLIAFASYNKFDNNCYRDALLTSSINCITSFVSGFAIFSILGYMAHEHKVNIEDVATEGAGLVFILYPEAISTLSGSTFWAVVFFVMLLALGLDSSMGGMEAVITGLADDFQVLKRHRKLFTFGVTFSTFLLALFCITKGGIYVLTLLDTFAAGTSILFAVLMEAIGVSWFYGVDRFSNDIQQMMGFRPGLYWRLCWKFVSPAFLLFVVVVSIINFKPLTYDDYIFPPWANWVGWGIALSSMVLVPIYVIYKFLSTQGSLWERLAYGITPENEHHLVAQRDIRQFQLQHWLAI
uptake of norepinephrine, sequence (P23975 whole entry): as above

CNCCC(Oc1cc(CCO)cc(CCO)c1)c1ccccc1 (stereo not drawn) [Example 20, 2,2′-[5-[3-(Methylamino)-1-phenylpropoxy]-1,3-phenylene]diethanol]
inhibition at 10 µM (serotonin transporter): 68 to 82%
inhibition at 10 µM [1]: 65 to 90%
IC50 (uptake of serotonin): 2.5 to 4.8 µM
IC50 (uptake of norepinephrine): 1.6 to 2.9 µM

CNCCC(Oc1cc(CCCO)cc(CCCO)c1)c1ccccc1 (stereo not drawn) [Example 21, 3,3′-[5-[3-(Methylamino)-1-phenylpropoxy]-1,3-phenylene]dipropan-1-ol]
inhibition at 10 µM (serotonin transporter): 68 to 82%
inhibition at 10 µM [1]: 65 to 90%
IC50 (uptake of serotonin): 2.5 to 4.8 µM
IC50 (uptake of norepinephrine): 1.6 to 2.9 µM

CNCCC(Oc1cc(CCCCO)cc(CCCCO)c1)c1ccccc1 (stereo not drawn) [Example 22, 4,4′-[5-[3-(Methylamino)-1-phenylpropoxy]-1,3-phenylene]dibutan-1-ol]
inhibition at 10 µM (serotonin transporter): 68 to 82%
inhibition at 10 µM [1]: 65 to 90%
IC50 (uptake of serotonin): 2.5 to 4.8 µM
IC50 (uptake of norepinephrine): 1.6 to 2.9 µM

CNCCC(Oc1ccc(CCO[C@@H]2O[C@H](CO)[C@@H](O)[C@H](O)[C@H]2O)cc1)c1ccccc1 (stereo partly drawn) [Example 23, (2R,3S,4S,5R,6R)-2-(Hydroxymethyl)-6-[4-[3-(methylamino)-1-phenylpropoxy]phenethoxy]tetrahydro-2H-pyran-3,4,5-triol]
inhibition at 10 µM (serotonin transporter): 68 to 82%
inhibition at 10 µM [1]: 65 to 90%
IC50 (uptake of serotonin): 2.5 to 4.8 µM
IC50 (uptake of norepinephrine): 1.6 to 2.9 µM

CN(C)CCC(Oc1ccc(CCO)cc1)c1ccccc1 (stereo not drawn) [Example 24, 2-[4-(3-Dimethylamino-1-phenylpropoxy)phenyl]ethanol]
inhibition at 10 µM (serotonin transporter): 68 to 82%
inhibition at 10 µM [1]: 65 to 90%
IC50 (uptake of serotonin): 2.5 to 4.8 µM
IC50 (uptake of norepinephrine): 1.6 to 2.9 µM

CNCCC(Oc1ccc(C/C=C/CO)cc1)c1ccccc1 (stereo not drawn) [Example 25, 4-[4-(3-Methylamino-1-phenylpropoxy)phenyl]but-2-en-1-ol]
inhibition at 10 µM (serotonin transporter): 68 to 82%
inhibition at 10 µM [1]: 65 to 90%
IC50 (uptake of serotonin): 2.5 to 4.8 µM
IC50 (uptake of norepinephrine): 1.6 to 2.9 µM

CNCCC(Oc1ccc(CCCCCCO)cc1)c1ccccc1 (stereo not drawn) [Example 26, 6-[4-(3-Methylamino-1-phenylpropoxy)phenyl]hexan-1-ol]
inhibition at 10 µM (serotonin transporter): 68 to 82%
inhibition at 10 µM [1]: 65 to 90%
IC50 (uptake of serotonin): 2.5 to 4.8 µM
IC50 (uptake of norepinephrine): 1.6 to 2.9 µM

CNCCC(Oc1ccc(/C=C/CCCCO)cc1)c1ccccc1 (stereo not drawn) [Example 27, 6-[4-(3-Methylamino-1-phenylpropoxy)phenyl]hex-5-en-1-ol]
inhibition at 10 µM (serotonin transporter): 68 to 82%
inhibition at 10 µM [1]: 65 to 90%
IC50 (uptake of serotonin): 2.5 to 4.8 µM
IC50 (uptake of norepinephrine): 1.6 to 2.9 µM

CNCC[C@H](Oc1ccc(CCO)cc1)c1cccs1 [Example 28, (S)2-[4-(3-Methylamino-1-thiophen-2-ylpropoxy)phenyl]ethanol]
inhibition at 10 µM (serotonin transporter): 68 to 82%
inhibition at 10 µM [1]: 65 to 90%
IC50 (uptake of serotonin): 2.5 to 4.8 µM
IC50 (uptake of norepinephrine): 1.6 to 2.9 µM

OCCc1ccc(OC(c2ccccc2)C2CNCCO2)cc1 (stereo not drawn) [Example 29, 2-[4-(Morpholin-2-yl(phenyl)methoxy)phenyl]ethanol]
inhibition at 10 µM (serotonin transporter): 68 to 82%
inhibition at 10 µM [1]: 65 to 90%
IC50 (uptake of serotonin): 2.5 to 4.8 µM
IC50 (uptake of norepinephrine): 1.6 to 2.9 µM

OCCc1ccc(OC[C@@H]2CNCC[C@H]2c2ccc(F)cc2)cc1 [Example 30, 2-[4-[[(3S,4R)-4-(4-Fluorophenyl)piperidin-3-yl]methoxy]phenyl]ethanol]
inhibition at 10 µM (serotonin transporter): 68 to 82%
inhibition at 10 µM [1]: 65 to 90%
IC50 (uptake of serotonin): 2.5 to 4.8 µM
IC50 (uptake of norepinephrine): 1.6 to 2.9 µM

CN(C)CC(Oc1ccc(CCO)cc1)C1CCCCC1O (stereo not drawn) [Example 31, 2-[2-Dimethylamino-1-[4-(2-hydroxyethyl)phenoxy]ethyl]cyclohexanol]
inhibition at 10 µM (serotonin transporter): 68 to 82%
inhibition at 10 µM [1]: 65 to 90%
IC50 (uptake of serotonin): 2.5 to 4.8 µM
IC50 (uptake of norepinephrine): 1.6 to 2.9 µM

CN(C)CC(Oc1ccc(CCO)cc1)C1(O)CCCCC1 (stereo not drawn) [Example 32, 1-[2-Dimethylamino-1-[4-(2-hydroxyethyl)phenoxy]-ethyl]-cyclohexanol]
inhibition at 10 µM (serotonin transporter): 68 to 82%
inhibition at 10 µM [1]: 65 to 90%
IC50 (uptake of serotonin): 2.5 to 4.8 µM
IC50 (uptake of norepinephrine): 1.6 to 2.9 µM

CNCCC(Oc1ccc(C(F)(F)F)cc1)c1ccccc1 (stereo not drawn) [Fluoxetine, reference compound]
cognitive improvement (mice): absence of cognitive improvement

CCN(CC)C(=O)C1(c2ccccc2)CC1CN (stereo not drawn) [milnacipran, reference compound]
cognitive improvement (mice): absence of cognitive improvement
